Assay results reported in the Kinase Knowledgebase extract (Sharma et al. 2016).
Values joined by “and” are separate entries in the source; they are usually repeats but may differ in a detail not shown here. Identical values can stand only once.

The compounds below were run against MAPK14 (human) (UniProt Q16539) (assay: Cell-Based Assay). Details: thp1.
Chain of MAPK14 (human) (Q16539 whole entry, looked up): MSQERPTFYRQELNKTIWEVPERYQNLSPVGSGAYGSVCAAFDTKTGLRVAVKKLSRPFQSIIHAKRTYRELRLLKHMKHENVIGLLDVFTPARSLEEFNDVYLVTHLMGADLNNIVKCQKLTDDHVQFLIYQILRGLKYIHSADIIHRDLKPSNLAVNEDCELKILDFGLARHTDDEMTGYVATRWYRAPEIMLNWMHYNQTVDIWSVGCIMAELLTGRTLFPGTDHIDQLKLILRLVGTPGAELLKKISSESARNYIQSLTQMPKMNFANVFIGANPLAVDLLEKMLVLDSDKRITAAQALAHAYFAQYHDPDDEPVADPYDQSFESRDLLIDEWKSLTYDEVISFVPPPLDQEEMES

In order of falling EC50:
1. CC(C)(C)c1cc(NC(=O)NCCc2ccccc2)n(-c2ccccc2)n1  11000 nM
2. CC(C)(C)c1cc(NC(=O)NC2CCCCC2)n(-c2ccccc2)n1  3300 nM
3. Cc1ccccc1-n1nc(C(C)(C)C)cc1NC(=O)Nc1ccccc1  2300 nM
4. CC(C)(C)c1cc(NC(=O)Nc2ccccc2)n(-c2ccc3ccccc3c2)n1  1900 nM
5. COc1ccc(-n2nc(C(C)(C)C)cc2NC(=O)Nc2ccccc2)cc1  1600 nM
6. CC(C)(C)c1cc(NC(=O)NCc2ccccc2)n(-c2ccccc2)n1  1200 nM
7. CC(C)(C)c1cc(NC(=O)Nc2ccc(Cl)cc2)n(-c2ccccc2)n1  1000 nM
8. CC(C)(C)c1cc(NC(=O)Nc2cccc(N)c2)n(-c2ccccc2)n1  1000 nM
9. COc1cccc(-n2nc(C(C)(C)C)cc2NC(=O)Nc2ccccc2)c1  960 nM
10. CC(C)(C)c1cc(NC(=O)Nc2ccccc2)n(-c2ccncc2)n1  820 nM
11. CC(C)(C)c1cc(NC(=O)NC2Cc3ccccc3C2)n(-c2ccccc2)n1  770 nM
12. CC(C)(C)c1cc(NC(=O)Nc2ccccc2)n(-c2ccccc2)n1  730 nM
13. CC(C)(C)c1cc(NC(=O)Nc2ccc3ccccc3c2)n(-c2ccccc2)n1  700 nM
14. CC(C)(C)c1cc(NC(=O)Nc2ccccc2)n(-c2ccc(N)cc2)n1  630 nM
15. Cc1cccc(NC(=O)Nc2cc(C(C)(C)C)nn2-c2ccccc2)c1C  410 nM
16. Cc1cccc(-n2nc(C(C)(C)C)cc2NC(=O)Nc2ccccc2)c1  380 nM
17. Cc1ccc(-n2nc(C(C)(C)C)cc2NC(=O)Nc2cccc3ccccc23)cc1  370 nM
18. CC(C)(C)c1cc(NC(=O)NC2CCc3ccccc32)n(-c2ccccc2)n1 (stereo not given)  330 nM
19. CC(C)(C)c1cc(NC(=O)Nc2cccc3ccccc23)n(-c2ccccc2)n1  250 nM
20. Cc1ccc(-n2nc(C(C)(C)C)cc2NC(=O)Nc2ccccc2)cc1  180 nM
21. Cc1ccc(-n2nc(C(C)(C)C)cc2NC(=O)Nc2ccccc2F)cc1  130 nM
22. Cc1ccc(-n2nc(C(C)(C)C)cc2NC(=O)Nc2ccccc2)cc1C  120 nM

First: Cc1ccccc1-n1nc(C(C)(C)C)cc1NC(=O)Nc1ccccc1
Second: Cc1cccc(-n2nc(C(C)(C)C)cc2NC(=O)Nc2ccccc2)c1
The Kd of the first is 100-fold higher: 200 nM for the first, 2 nM for the second.

Compared with CCC(C)(C)c1cc(NC(=O)Nc2ccccc2)n(-c2ccccc2)n1, COCC(C)(C)c1cc(NC(=O)Nc2ccccc2)n(-c2ccccc2)n1 is 120-fold higher in Kd: 12 nM for the first, 1400 nM for the second.

First: CC(C)(c1ccccc1)c1cc(NC(=O)Nc2ccccc2)n(-c2ccccc2)n1
Second: CC(C)(C)c1cc(NC(=O)Nc2ccccc2)n(-c2ccccc2)n1
The Kd of the first is 58-fold higher: 760 nM for the first, 13 nM for the second.

Going from CC(C)(C)c1cc(CC(=O)Nc2ccc(Cl)cc2)n(-c2ccccc2)n1 to CC(C)(C)c1cc(NC(=O)Nc2ccc(Cl)cc2)n(-c2ccccc2)n1, the Kd falls from 1500 nM to 8 nM (190-fold). The second binds more tightly here.

First: CC(C)(C)c1cc(NC(=O)Nc2ccccc2)n(-c2ccc(N)cc2)n1
Second: CC(C)(C)c1cc(NC(=O)Nc2ccc(N)cc2)n(-c2ccccc2)n1
The Kd of the first is 45-fold lower: 7 nM for the first, 318 nM for the second.

First: Cc1cc(NC(=O)Nc2ccccc2)n(-c2ccccc2)n1
Second: CC(C)c1cc(NC(=O)Nc2ccccc2)n(-c2ccccc2)n1
The Kd of the first is higher: greater than 7000 nM for the first, 330 nM for the second. The second binds more tightly here.

First: CC(C)(C)c1cc(NC(=O)NCCc2ccccc2)n(-c2ccccc2)n1
Second: CC(C)(C)c1cc(NC(=O)NCc2ccccc2)n(-c2ccccc2)n1
The Kd of the first is 5.5-fold higher: 260 nM for the first, 47 nM for the second.

Compared with CC(C)(C)c1cc(NC(=O)Nc2ccncc2)n(-c2ccccc2)n1, CC(C)(C)c1cc(NC(=O)Nc2ccccc2)n(-c2ccncc2)n1 is 57-fold lower in Kd: 1200 nM for the first, 21 nM for the second. The second binds more tightly here.

Compared with CC(C)(C)c1cc(NC(N)=O)n(-c2ccccc2)n1, CC(C)(C)c1cc(NC(=O)Nc2cccc(N)c2)n(-c2ccccc2)n1 is lower in Kd: greater than 7000 nM for the first, 100 nM for the second. The second binds more tightly here.

CC(C)(C)c1cc(NC(=O)Nc2cccnc2)n(-c2ccccc2)n1 and CC(C)(C)c1cc(NC(=O)Nc2ccccn2)n(-c2ccccc2)n1 are within 1.5-fold of each other in Kd: 420 nM for the first, 400 nM for the second.

CN(C(=O)Nc1ccc(Cl)cc1)c1cc(C(C)(C)C)nn1-c1ccccc1 and CN(C(=O)Nc1cc(C(C)(C)C)nn1-c1ccccc1)c1ccc(Cl)cc1 cannot be ordered by Kd: greater than 1000 nM for the first, 7500 nM for the second.

First: CC(C)(C)c1cc(NC(=S)Nc2ccc(Cl)cc2)n(-c2ccccc2)n1
Second: CC(C)(C)c1cc(NC(=O)Cc2ccc(Cl)cc2)n(-c2ccccc2)n1
The Kd of the first is lower: 530 nM for the first, greater than 900 nM for the second. The first binds more tightly here.

Compared with CC(C)(C)c1cc(NC(=O)NC2CCCCC2)n(-c2ccccc2)n1, CC(C)(C)c1cc(NC(=O)Nc2ccccc2)n(C2CCCCC2)n1 is 3.8-fold higher in Kd: 130 nM for the first, 500 nM for the second. The first binds more tightly here.

Compared with CC(C)(C)c1cc(NC(=O)Nc2ccccc2)n(-c2ccc3ccccc3c2)n1, CC(C)(C)c1cc(NC(=O)Nc2cccc3ccccc23)n(-c2ccccc2)n1 is 1.6-fold lower in Kd: 8 nM for the first, 5 nM for the second.

First: COc1cccc(-n2nc(C(C)(C)C)cc2NC(=O)Nc2ccccc2)c1
Second: COc1ccc(-n2nc(C(C)(C)C)cc2NC(=O)Nc2ccccc2)cc1
The Kd of the first is 1.6-fold lower: 19 nM for the first, 31 nM for the second.

First: CC(C)(C)c1cc(NC(=O)NC2Cc3ccccc3C2)n(-c2ccccc2)n1
Second: CC(C)(C)c1cc(NC(=O)NC2CCc3ccccc32)n(-c2ccccc2)n1 (stereo not given)
The Kd of the first is 4.7-fold higher: 14 nM for the first, 3 nM for the second.

Cc1cccc(NC(=O)Nc2cc(C(C)(C)C)nn2-c2ccccc2)c1C and Cc1ccc(-n2nc(C(C)(C)C)cc2NC(=O)Nc2ccccc2)cc1C are within 1.5-fold of each other in Kd: 3 nM for the first, 4 nM for the second.

Going from CC1(c2cc(NC(=O)Nc3ccccc3)n(-c3ccccc3)n2)CCOCC1 to CC1(c2cc(NC(=O)Nc3ccccc3)n(-c3ccccc3)n2)CCCCC1, the Kd falls from 280 nM to 22 nM (13-fold).

Going from Cc1ccc(-n2nc(C(C)(C)C)cc2NC(=O)Nc2ccccc2F)cc1 to O=C(Nc1ccccc1)Nc1cc(C2CCCCC2)nn1-c1ccccc1, the Kd rises from 14 nM to greater than 400 nM. The first binds more tightly here.

In order of falling Cp:
1. Cc1ccc(-n2nc(C(C)(C)C)cc2NC(=O)Nc2ccccc2F)cc1  51 µg/mL
2. Cc1ccc(-n2nc(C(C)(C)C)cc2NC(=O)Nc2ccccc2)cc1  11 µg/mL
3. CC(C)(C)c1cc(NC(=O)Nc2ccccc2)n(-c2ccccc2)n1  0.1 µg/mL

In the case of Cc1ccc(-n2nc(C(C)(C)C)cc2NC(=O)Nc2ccccc2)cc1, the Kd is reported as 3 nM and 21 nM.

Same assay, conditions: thp1, concentration not given here

Cc1ccc(-n2nc(C(C)(C)C)cc2NC(=O)Nc2ccccc2F)cc1 showed an inhibition of 53%.
